Measurements taken from patent US10759768B2, “Prophylactic or therapeutic agent for autism spectrum disorder” (priority 2016, dated 2020).
“Also recorded” adds a separate entry of the source.

Tested on: rat valproic acid-exposed autism model
Experiment: Sociability test (3 chamber) in rat embryonic valproic acid-exposed autism model
Assay type: in vivo
Settings: compound A 0.2 or 1 mg/kg orally once a day for 14 days from 3 weeks of age; male Sprague-Dawley offspring exposed to VPA 500 mg/kg i.p.; test at 5 weeks of age; FIG. 1
Method: Rat embryonic valproic acid-exposed autism model was used for the test. Sodium valproate (VPA) 500 mg/kg (mpk) was intraperitoneally administered to Sprague-Dawley pregnant rats on the 12.5th day in the embryonic stage. The offspring was weaned on the 21st day after birth, and only the male rat was used for the experiment. Compound A (0.2 or 1 mg/kg) was orally administered once a day at 18 o'clock for 14 days from 3 weeks of age after weaning and a behavioral test was conducted at 5 weeks of age. As unknown rat (Stranger rat), a purchased male rat of the same strain and the same week of age was used with no contact with the rat to be tested (test rat) until the day of the test.
In the experiment, a black plastic 3 chamber experimental apparatus (90×60×34 cm, each chamber 30×60×34 cm) was used. […]
On the day of the test, the rats to be tested and unknown rats were acclimated to the test environment for 1 hour or more and then the test was started. […] The sniffing to each cylinder (action of sniffing an object or an animal) was visually measured for 10 min. A sniffing index, which is an indicator of interest to other animal, was calculated by the following formula based on the sniffing time to each cylinder for 10 min. […]

`CC(=O)NCC[C@@H]1CCc2ccc3nc(C)oc3c21` [compound A, (S)—N-[2-(2-methyl-7,8-dihydro-6H-indeno[5,4-d][1,3]oxazol-8-yl)ethyl]acetamide] was tested, and the “effect on social disorder / social performance (Sniffing index, Sniffing time to object)” value was “significant (# P≤0.025) improvement effect on social performance; also recorded: showed effectiveness on the social disorder”.
